Experimental data as given in US12209087B2, “AKT1 modulators” (Alterome Therapeutics, Inc., priority 2022, dated 2025).

Target: T1, full length AKT E17K (Homo sapiens, UniProt P31749, E17K)
T1 construct: host or cells: HEK-293 (ATCC CRL-1573)
Assay: NanoBRET Target Engagement (TE) Assay
Format: cell-based
Conditions: competitive displacement of tracer in cells, read-out: AKT1 E17K IC50
Procedure, shortened: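 Compound and tracer incubated 2 h before luminescence at donor 450 nm and acceptor 600 nm, with extracellular signal inhibited. EC50 by sigmoidal variable-slope regression.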

T1 sequence (P31749 whole entry E17K): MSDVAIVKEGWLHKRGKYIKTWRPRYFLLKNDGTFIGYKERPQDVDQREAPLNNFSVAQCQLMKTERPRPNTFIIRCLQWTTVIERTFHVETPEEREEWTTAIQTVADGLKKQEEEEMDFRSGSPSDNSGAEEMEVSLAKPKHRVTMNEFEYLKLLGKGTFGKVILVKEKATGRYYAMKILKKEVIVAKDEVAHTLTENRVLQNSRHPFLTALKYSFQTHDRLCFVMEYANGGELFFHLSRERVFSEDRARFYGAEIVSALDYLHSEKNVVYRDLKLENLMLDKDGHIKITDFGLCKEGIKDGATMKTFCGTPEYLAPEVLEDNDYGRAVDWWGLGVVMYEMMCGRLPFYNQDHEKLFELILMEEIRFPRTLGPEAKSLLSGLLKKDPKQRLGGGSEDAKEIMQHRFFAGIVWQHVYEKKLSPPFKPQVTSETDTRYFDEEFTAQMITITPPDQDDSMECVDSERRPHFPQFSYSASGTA

SMILES	IC50 [nM]
N#Cc1ncnc(NC2CCN(Cc3ccc(-n4c(-c5cccnc5N)nc5ccc(-c6ccccc6)nc54)cc3)CC2)n1 [Example 391, 4-((1-(4-(2-(2-Aminopyridin-3-yl)-5-phenyl-3H-imidazo[4,5-b]pyridin-3-yl)benzyl)piperidin-4-yl)amino)-1,3,5-triazine-2-carbonitrile]	< 15
N#Cc1nccc(NC2CCN(Cc3ccc(-n4c(-c5ccccc5N)nc5ccc(-c6ccc(F)cn6)nc54)cc3)CC2)n1 [Example 576, 4-((1-(4-(2-(2-Aminophenyl)-5-(5-fluoropyridin-2-yl)-3H-imidazo[4,5-b]pyridin-3-yl)benzyl)piperidin-4-yl)amino)pyrimidine-2-carbonitrile]	15 to 60
[2H]C([2H])([2H])N(c1ccnc(C#N)n1)C1CCN(Cc2ccc(-n3c(-c4cccnc4N)nc4ccc(-c5ccc(F)cc5)nc43)cc2)CC1 [Example 441, 4-((1-(4-(2-(2-Aminopyridin-3-yl)-5-(4-fluorophenyl)-3H-imidazo[4,5-b]pyridin-3-yl)benzyl)piperidin-4-yl)(methyl-d3)amino)pyrimidine-2-carbonitrile]	< 15
N#Cc1nccc(NC2CCN(Cc3ccc(-n4c(-c5cccnc5N)nc5ccc(-c6ccc(F)cn6)nc54)cc3)CC2)n1 [Example 456, 4-((1-(4-(2-(2-Aminopyridin-3-yl)-5-(5-fluoropyridin-2-yl)-3H-imidazo[4,5-b]pyridin-3-yl)benzyl)piperidin-4-yl)amino)pyrimidine-2-carbonitrile]	< 15
N#Cc1ccnc(NC2CCN(Cc3ccc(-n4c(-c5cccnc5N)nc5ccc(-c6ccc(F)cc6)nc54)cc3)CC2)n1 [Example 352, 2-((1-(4-(2-(2-Aminopyridin-3-yl)-5-(4-fluorophenyl)-3H-imidazo[4,5-b]pyridin-3-yl)benzyl)piperidin-4-yl)amino)pyrimidine-4-carbonitrile]	15 to 60
CC(C)C(=O)Nc1cccc(-c2ccc3nc(-c4cccnc4NC(=O)C(C)C)n(-c4ccc(CN5CCC(Nc6ccnc(C#N)n6)CC5)cc4)c3n2)c1 [Example 519, N-(3-(3-(4-((4-((2-cyanopyrimidin-4-yl)amino)piperidin-1-yl)methyl)phenyl)-2-(2-isobutyramidopyridin-3-yl)-3H-imidazo[4,5-b]pyridin-5-yl)phenyl)isobutyramide]	15 to 60
[2H]C([2H])([2H])n1ncc(-c2ccc3nc(-c4nccnc4N)n(-c4ccc(CN5CCC(Nc6ccnc(C#N)n6)CC5)cc4)c3n2)n1 [Example 621, 4-((1-(4-(2-(3-Aminopyrazin-2-yl)-5-(2-(methyl-d3)-2H-1,2,3-triazol-4-yl)-3H-imidazo[4,5-b]pyridin-3-yl)benzyl)piperidin-4-yl)amino)pyrimidine-2-carbonitrile]	< 15
Cc1cc2nc(-c3cccnc3N)n(-c3ccc(CN4CCC(Nc5ccnc(C#N)n5)CC4)cc3)c2nc1C [Example 412, 4-((1-(4-(2-(2-Aminopyridin-3-yl)-5,6-dimethyl-3H-imidazo[4,5-b]pyridin-3-yl)benzyl)piperidin-4-yl)amino)pyrimidine-2-carbonitrile]	< 15

Next, values leading:

IC50 [nM]	SMILES
< 15	[2H]C([2H])([2H])N(c1ccnc(C#N)n1)C1CCN(C([2H])([2H])c2ccc(-n3c(-c4cccnc4N)nc4ccc(-c5ccc(F)cc5)nc43)cc2)CC1 [Example 442, 4-((1-((4-(2-(2-Aminopyridin-3-yl)-5-(4-fluorophenyl)-3H-imidazo[4,5-b]pyridin-3-yl)phenyl)methyl-d2)piperidin-4-yl)(methyl-d3)amino)pyrimidine-2-carbonitrile]
15 to 60	N#Cc1nccc(NC2CCN(Cc3ccc(-n4c(-c5cccnc5N)nc5ccc(-c6cccc(C(F)(F)F)c6)nc54)cc3)CC2)n1 [Example 530, 4-((1-(4-(2-(2-Aminopyridin-3-yl)-5-(3-(trifluoromethyl)phenyl)-3H-imidazo[4,5-b]pyridin-3-yl)benzyl)piperidin-4-yl)amino)pyrimidine-2-carbonitrile]
< 15	[2H]C([2H])([2H])N(c1ccc2nc(-c3cccnc3N)n(-c3ccc(CN4CCC(Nc5ccnc(C#N)n5)CC4)cc3)c2n1)C([2H])([2H])[2H] [Example 458, 4-((1-(4-(2-(2-Aminopyridin-3-yl)-5-(bis(methyl-d3)amino)-3H-imidazo[4,5-b]pyridin-3-yl)benzyl)piperidin-4-yl)amino)pyrimidine-2-carbonitrile]
15 to 60	N#Cc1nccc(NC2CCN(Cc3ccc(-n4c(-c5cccnc5N)nc5ccc(-c6ccnc(OC(F)F)c6)nc54)cc3)CC2)n1 [Example 543, 4-((1-(4-(2-(2-aminopyridin-3-yl)-5-(2-(difluoromethoxy)pyridin-4-yl)-3H-imidazo[4,5-b]pyridin-3-yl)benzyl)piperidin-4-yl)amino)pyrimidine-2-carbonitrile]
< 15	Cc1cnc(-c2ccc3nc(-c4cccnc4N)n(-c4ccc(CN5CCC(Nc6ccnc(C#N)n6)CC5)cc4)c3n2)nc1 [Example 604, 4-((1-(4-(2-(2-Aminopyridin-3-yl)-5-(5-methylpyrimidin-2-yl)-3H-imidazo[4,5-b]pyridin-3-yl)benzyl)piperidin-4-yl)amino)pyrimidine-2-carbonitrile]
< 15	CCn1cc(-c2ccc3nc(-c4cccnc4N)n(-c4ccc(CN5CCC(Nc6ccnc(C#N)n6)CC5)cc4)c3n2)cn1 [Example 466, 4-((1-(4-(2-(2-Aminopyridin-3-yl)-5-(1-ethyl-1H-pyrazol-4-yl)-3H-imidazo[4,5-b]pyridin-3-yl)benzyl)piperidin-4-yl)amino)pyrimidine-2-carbonitrile]

Same assay, conditions: competitive tracer displacement in living cells, read-out: AKT1 E17K IC50

SMILES	IC50 [nM]
N#Cc1cc(N2CCN(Cc3ccc(-n4c(-c5cccnc5N)nc5ccc(-c6ccccc6F)nc54)cc3)CC2)ncn1 [Example 314, 6-(4-(4-(2-(2-Aminopyridin-3-yl)-5-(2-fluorophenyl)-3H-imidazo[4,5-b]pyridin-3-yl)benzyl)piperazin-1-yl)pyrimidine-4-carbonitrile]	< 15
N#Cc1cncc(C(=O)N2CCN(Cc3ccc(-n4c(-c5cccnc5N)nc5cccnc54)cc3)CC2)c1 [Example 79, 5-(4-(4-(2-(2-Aminopyridin-3-yl)-3H-imidazo[4,5-b]pyridin-3-yl)benzyl)piperazine-1-carbonyl)nicotinonitrile]	600 to 10000
N#Cc1ccnc(NC2CCN(Cc3ccc(-n4c(-c5cccnc5N)nc5ccc(-c6ccccc6)nc54)cc3)CC2)c1 [Example 87, 2-((1-(4-(2-(2-Aminopyridin-3-yl)-5-phenyl-3H-imidazo[4,5-b]pyridin-3-yl)benzyl)piperidin-4-yl)amino)isonicotinonitrile]	60 to 600
N#Cc1ccc(NC2CCN(Cc3ccc(-n4c(-c5cccnc5N)nc5cccnc54)cc3)CC2)cn1 [Example 157, 5-((1-(4-(2-(2-aminopyridin-3-yl)-3H-imidazo[4,5-b]pyridin-3-yl)benzyl)piperidin-4-yl)amino)picolinonitrile]	600 to 10000
N#Cc1cc(N2CCN(Cc3ccc(-n4c(-c5cccnc5N)nc5ccc(N6CCOCC6)nc54)cc3)CC2)ncn1 [Example 237, 6-(4-(4-(2-(2-Aminopyridin-3-yl)-5-morpholino-3H-imidazo[4,5-b]pyridin-3-yl)benzyl)piperazin-1-yl)pyrimidine-4-carbonitrile]	15 to 60
N#Cc1ccnc(N2CC3CCC2CN3Cc2ccc(-n3c(-c4cccnc4N)nc4ccc(-c5ccccc5)nc43)cc2)n1 (stereo not drawn) [Example 220, 2-(5-(4-(2-(2-Aminopyridin-3-yl)-5-phenyl-3H-imidazo[4,5-b]pyridin-3-yl)benzyl)-2,5-diazabicyclo[2.2.2]octan-2-yl)pyrimidine-4-carbonitrile]	60 to 600

Continued, values first:

IC50 [nM]	SMILES
60 to 600	C[C@@H]1CN(Cc2ccc(-n3c(-c4cccnc4N)nc4ccc(-c5ccccc5)nc43)cc2)CCN1c1nccc(C#N)n1 [Example 226, (R)-2-(4-(4-(2-(2-Aminopyridin-3-yl)-5-phenyl-3H-imidazo[4,5-b]pyridin-3-yl)benzyl)-2-methylpiperazin-1-yl)pyrimidine-4-carbonitrile]
600 to 10000	N#Cc1cc(NC2CCN(Cc3ccc(-n4c(-c5cccnc5N)nc5cccnc54)cc3)CC2)ncn1 [Example 64, 6-((1-(4-(2-(2-aminopyridin-3-yl)-3H-imidazo[4,5-b]pyridin-3-yl)benzyl)piperidin-4-yl)amino)pyrimidine-4-carbonitrile]
15 to 60	Cn1cccc(-c2ccc3nc(-c4cccnc4N)n(-c4ccc(CN5CCN(c6ccnc(C#N)n6)CC5)cc4)c3n2)c1=O [Example 260, 4-(4-(4-(2-(2-aminopyridin-3-yl)-5-(1-methyl-2-oxo-1,2-dihydropyridin-3-yl)-3H-imidazo[4,5-b]pyridin-3-yl)benzyl)piperazin-1-yl)pyrimidine-2-carbonitrile]
< 15	N#Cc1ncnc(N[C@H]2CCCN(Cc3ccc(-n4c(-c5cccnc5N)nc5ccc(-c6ccccc6)nc54)cc3)C2)n1 [Example 224, (S)-4-((1-(4-(2-(2-Aminopyridin-3-yl)-5-phenyl-3H-imidazo[4,5-b]pyridin-3-yl)benzyl)piperidin-3-yl)amino)-1,3,5-triazine-2-carbonitrile]
< 15	N#Cc1nccc(N2C[C@H]3C[C@@H]2CN3Cc2ccc(-n3c(-c4cccnc4N)nc4ccc(-c5ccccc5)nc43)cc2)n1 [Example 216, 4-((1R,4R)-5-(4-(2-(2-Aminopyridin-3-yl)-5-phenyl-3H-imidazo[4,5-b]pyridin-3-yl)benzyl)-2,5-diazabicyclo[2.2.1]heptan-2-yl)pyrimidine-2-carbonitrile]
15 to 60	N#Cc1nc2cc(F)cc(C(=O)N3CCN(Cc4ccc(-n5c(-c6cccnc6N)nc6ccc(-c7ccccc7)nc65)cc4)CC3)c2s1 [Example 180, 7-(4-(4-(2-(2-Aminopyridin-3-yl)-5-phenyl-3H-imidazo[4,5-b]pyridin-3-yl)benzyl)piperazine-1-carbonyl)-5-fluorobenzo[d]thiazole-2-carbonitrile]
600 to 10000	N#Cc1cncc(C(=O)NCc2ccc(-n3c(-c4cccnc4N)nc4cccnc43)cc2)c1 [Example 123, N-(4-(2-(2-Aminopyridin-3-yl)-3H-imidazo[4,5-b]pyridin-3-yl)benzyl)-5-cyanonicotinamide]
